Read-outs that look alike come from different tables or passages of the source.
Tests used:
[1] = for Rate of decomposition over time into the decomposition product X (lactone) / Rate of decomposition over time into the decomposition product Y (lactam): storage 120° C., open vial, HPLC area ratio relative to monatin; for Comparison of decomposition rates ((b)/(a)), decomposition product X (lactone) / Comparison of decomposition rates ((b)/(a)), decomposition product Y (lactam): Comp. Ex. 1 (b) relative to Example 4 (a), 120° C.
Method: A 50 mg quantity of the crystals of Example 4 and an identical quantity of the crystals of Comparative Example 1 were placed in separate 4 mL vials and stored at a temperature of 120° C. During this storage, the vials were left open. Following storage periods of 3 hours, 7 hours, and 24 hours, 2 mg of sample was removed and the rate of decomposition of the samples was determined by HPLC. Specifically, decomposition product X was a lactone compound (RT=21 minutes) and decomposition product Y was a lactam compound (RT=26 minutes). The individual area ratios (percentages) were calculated relative to the area of monatin.

[2] = Sweetness intensity by panelists relative to 5 percent sucrose aqueous solution; type: in vivo; conditions: average of values provided by seven panelists relative to 5 percent sucrose aqueous solution
From the text: Sweetness intensity: 2,700-fold (average of values provided by seven panelists relative to 5 percent sucrose aqueous solution)

[3] = Water vapor adsorption/desorption test; type: physicochemical; conditions: water vapor adsorption/desorption curve, adsorption temperature 298 K
From the text: A water vapor adsorption/desorption curve was plotted for the (2R,4R) monatin monosodium salt hydrate crystals (A) obtained in Example 1. The measurement conditions were as follows. The measured values are given in FIG. 5. • Device: Automatic vapor adsorption measuring device BELSORP18 made by Bel Japan Inc. • Measurement method: Volumetric gas adsorption method
• Adsorbed gas: H2O • Air thermostat temperature (K): 353 • Adsorption temperature (K): 298 • Saturation vapor pressure (kPa): 3.169 • Adsorption cross-sectional area (nm^2): 0.125 • Maximum adsorption pressure (relative pressure P/PO): desorption: 0.90; adsorption: 0.95 • Minimum adsorption pressure (relative pressure P/PO): desorption: 0.10; adsorption: 0.05 • Equilibration period: 500 s

[4] = 24 hr, listed as Comparative Example 1

Row | Rate of decomposition over time into the decomposition product X (lactone) ([1]; 0 hr) [%] | Rate of decomposition over time into the decomposition product Y (lactam) ([1]; 0 hr) [%] | Rate of decomposition over time into the decomposition product X (lactone) ([1]; 3 hr) [%] | Rate of decomposition over time into the decomposition product Y (lactam) ([1]; 3 hr) [%] | Rate of decomposition over time into the decomposition product X (lactone) ([1]; 7 hr) [%] | Rate of decomposition over time into the decomposition product Y (lactam) ([1]; 7 hr) [%] | Rate of decomposition over time into the decomposition product X (lactone) ([1]; 24 hr) [%] | Rate of decomposition over time into the decomposition product Y (lactam) ([1]; 24 hr) [%] | Comparison of decomposition rates ((b)/(a)), decomposition product X (lactone) ([1]; 3 hr) | Comparison of decomposition rates ((b)/(a)), decomposition product Y (lactam) ([1]; 3 hr) | Comparison of decomposition rates ((b)/(a)), decomposition product X (lactone) ([1]; 7 hr) | Comparison of decomposition rates ((b)/(a)), decomposition product Y (lactam) ([1]; 7 hr) | Comparison of decomposition rates ((b)/(a)), decomposition product X (lactone) ([1]; 24 hr) | Comparison of decomposition rates ((b)/(a)), decomposition product Y (lactam) ([1]; 24 hr) | Comparison of decomposition rates ((b)/(a)), decomposition product X (lactone) [1, 4] [fold] | Comparison of decomposition rates ((b)/(a)), decomposition product Y (lactam) [1, 4] [fold] | Compound | Sweetness intensity [2] | Most stable hydrate [3]
1 | 0 | 0 | 0.11 | 0.11 | 0.23 | 0.21 | 0.24 | 0.38 |  |  |  |  |  |  |  |  | N[C@H](C[C@](O)(Cc1c[nH]c2ccccc12)C(=O)O)C(=O)[O-].O.[Na+] [Example 4, (2R,4R) Monatin Monosodium Salt Monohydrate Crystals (B)] | 2,700 fold | 
2 |  |  |  |  |  |  |  |  |  |  |  |  |  |  |  |  | NC(CC(O)(Cc1c[nH]c2ccccc12)C(=O)O)C(=O)[O-].[Na+] [Example 1, (2R,4R) Monatin Monosodium Salt Hydrate Crystals (A)] |  | trihydrate
3 | 0 | 0 | 3.38 | 2.08 | 4.64 | 3.63 | 6.67 | 7.46 | 30-fold | 19-fold | 21-fold | 17-fold | 27-fold | 20-fold | 27 | 20 | (2R,4R) monatin monosodium salt 0.2 ethanolate [Comp. Ex. 1] |  | 
